Test results published in patent US7772221B2, “Diaminopropane derived macrocycles as inhibitors of β amyloid production” (Bristol-Meyers Squibb Company, priority 2007, dated 2010).
pIC50: −log10 of the molar value.

Target: T1, BACE1 enzyme (Homo sapiens, UniProt P56817)
T1 construct: endogenous in cells; washed 48,000 x g membrane pellet / cell homogenate
Test: Radioligand displacement assay with a radiolabeled BACE inhibitor
Type: binding
Conditions: HEK293-9B.A1 cell homogenate overexpressing BACE1, 1 nM radioligand, pH 5.0, 1.5 hr at 25° C.; read-out: Activity Rating (activity based on IC50 values)
Source text: There are a number of methods by which inhibitors of the BACE enzyme can be identified experimentally. The enzyme can be obtained from membrane samples from natural tissues or cultured cells or can be expressed recombinantly in a host cell by well known methods of molecular biology. The whole enzyme or a portion thereof can be expressed, for example, in bacterial, insect or mammalian cells to obtain a catalytically active enzyme species. The enzymatic activity and/or ligand binding capability of the enzyme can be assessed within these membrane samples, or the enzyme can be purified to varying extents. As an illustrative example, the nucleic acid sequence encoding the pro and catalytic domains of human BACE can be appended on the 5′ end with an untranslated and signal sequence from the gene for acetylcholinesterase, and on the 3′ end with a sequence encoding a poly-histidine tag. This cDNA can then be expressed in Drosophila melanogaster S2 cells in which the signal and pro sequences of the transcribed/translated protein are removed by cellular proteases and the catalytic domain, appended by a C-terminal poly-histidine tag, is secreted out into the cellular medium. The enzyme can then be purified from the culture medium by nickel affinity chromatography by methods well known to those trained in the art [Mallender, W. et al., “Characterization of recombinant, soluble beta-secretase from an insect cell expression system.” Mol. Pharmacol. 2001, 59: 619-626]. Similar strategies for expressing and purifying various forms of BACE in bacterial, mammalian and other cell types would be known to one skilled in the art. A preferred method for determining the potency of a test compound in binding to the BACE enzyme is by monitoring the displacement of a suitable radioligand.
Radioligand displacement assays with a radiolabeled BACE inhibitor (WO 2004 013098, compound 3, where the methoxy group is substituted for C(^3H)3) were carried out using standard methods (Keen, M. (1999) in Receptor Binding Techniques (Walker, J. M. ed) p. 106 Humana Press, Totowa, N.J.). The HEK293-9B.A1 cell line, which overexpresses the BACE1 enzyme, was derived from HEK293 cells (Simmons, N. L. (1990) A cultured human renal epithelioid cell line responsive to vasoactive intestinal peptide. Exp. Physiol. 75:309-19.) by RAGE™ (Harrington, J. J. et al. (2001) Creation of genome-wide protein expression libraries using random activation of gene expression. Nat. Biotechnol. 19:440-5.; U.S. Pat. Nos. 6,410,266 and 6,361,972). T225 flask cultures of HEK293-9B.A1 were grown to 80% confluency in DMEM supplemented with 2 mM L-glutamine, 10 μg/mL penicillin, 10 μg/mL streptomycin, 3 μg/mL puromycin, 100 nM methotrexate, and 10% fetal bovine serum (Invitrogen, Carlsbad, Calif.), harvested, and resuspended at 2×10^8 cells per 10 mL of lysis buffer consisting of 50 mM HEPES pH 7.0 containing a protease inhibitor cocktail of AEBSF 104 μM, aprotinin 80 nM, leupeptin 2 μM, bestatin 4 μM, pepstatin A 1.5 μM, and E-64 1.4 μM (0.1% of protease inhibitor cocktail P8340, Sigma-Aldrich, St. Louis, Mo.) at 4° C. The resuspended cells were homogenized using a Polytron (Brinkman, Westbury, N.Y.) at setting 6 for 10 sec., then centrifuged at 48,000×g for 10 min. The resulting pellet was washed by repeating the resuspension, homogenization and centrifugation steps. The final pellet was resuspended in buffer at 4° C. to yield a total protein concentration of 5 mg/mL, then aliquots were frozen in liquid nitrogen for further storage at −70° C. Immediately before carrying out a binding assay, an aliquot of cell homogenate was thawed and diluted to a concentration of 100 μg/mL in assay buffer consisting of 50 mM HEPES pH 5.0 and 0.1% CHAPSO. […]

T1 sequence (P56817 46-501): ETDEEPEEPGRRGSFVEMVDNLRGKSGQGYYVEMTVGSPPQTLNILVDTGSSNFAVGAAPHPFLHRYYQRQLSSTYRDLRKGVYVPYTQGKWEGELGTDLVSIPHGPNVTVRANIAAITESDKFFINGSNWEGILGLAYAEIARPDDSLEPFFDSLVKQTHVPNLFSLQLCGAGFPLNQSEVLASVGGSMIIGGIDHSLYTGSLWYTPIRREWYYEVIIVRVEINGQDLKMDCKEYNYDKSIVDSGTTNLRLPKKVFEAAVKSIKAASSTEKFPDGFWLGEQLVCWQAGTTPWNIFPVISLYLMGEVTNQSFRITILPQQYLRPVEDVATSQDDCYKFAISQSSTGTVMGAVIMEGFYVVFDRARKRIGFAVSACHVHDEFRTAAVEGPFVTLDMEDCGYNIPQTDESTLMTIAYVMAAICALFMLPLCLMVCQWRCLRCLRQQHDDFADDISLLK

Row | SMILES | pIC50
1 | CCCC[C@H](C)C(=O)N(C)[C@H]1CCCCO[C@@H]2C[C@H](NC[C@@H](O)[C@H](Cc3cc(Cl)cc(Cl)c3)NC1=O)c1cc(OC)ccc12 [Example 49, (S)-2-methyl-hexanoic acid ((1S,4R,5S,8S,14R)-5-(3,5-dichloro-benzyl)-4-hydroxy-18-methoxy-7-oxo-13-oxa-2,6-diaza-tricyclo[12.6.1.0^15,20]henicosa-15(20),16,18-trien-8-yl)-methyl-amide] | > 8.00
2 | CC(C)C[C@@H]1NC(=O)CCCC=CCO[C@@H]2C[C@H](NC[C@H]1O)c1cc(OC(C)C)ccc12 [Example 79, (1S,4R,5S,15R)-4-hydroxy-5-isobutyl-19-isopropoxy-14-oxa-2,6-diaza-tricyclo[13.6.1.0^16,21]docosa-11,16(21),17,19-tetraen-7-one] | < 6.30
3 | CCCC[C@H]1CC=CCO[C@@H]2C[C@H](NC[C@@H](O)[C@H](Cc3cc(F)cc(F)c3)NC1=O)c1cc(OC)ccc12 [Example 8, (1S,4R,5S,8S,14R)-8-butyl-5-(3,5-difluoro-benzyl)-4-hydroxy-18-methoxy-13-oxa-2,6-diaza-tricyclo[12.6.1.0^15,20]henicosa-10,15(20),16,18-tetraen-7-one] | < 6.30
4 | COc1ccc2c(c1)[C@@H]1C[C@H]2OCC=CC[C@H](N(C)C(=O)C(C)CC(F)(F)F)C(=O)N[C@@H](Cc2cc(F)cc(F)c2)[C@H](O)CN1 (single isomer, unassigned; diastereomer a) [Example 21] | > 8.00
5 | CC(C)CCc1ccc2c(c1)[C@@H]1C[C@H]2OCC=CCCCC(=O)N[C@@H](Cc2cc(F)cc(F)c2)[C@H](O)CN1 [Example 69, (1S,4R,5S,15R)-5-(3,5-difluoro-benzyl)-4-hydroxy-19-(3-methyl-butyl)-14-oxa-2,6-diaza-tricyclo[13.6.1.0^16,21]docosa-11,16(21),17,19-tetraen-7-one] | 6.30 to 8.00
6 | COc1ccc2c(c1)[C@@H]1C[C@H]2OCC=CCC[C@H](N(C)S(=O)(=O)CCC(F)(F)F)C(=O)N[C@@H](CC(C)C)[C@H](O)CN1 [Example 70, 3,3,3-trifluoro-propane-1-sulfonic acid ((1S,4R,5S,8S,15R)-4-hydroxy-5-isobutyl-19-methoxy-7-oxo-14-oxa-2,6-diaza-tricyclo[13.6.1.0^16,21]docosa-11,16(21),17,19-tetraen-8-yl)-methyl-amide] | > 8.00
7 | CCCC[C@H](C)C(=O)N(C)[C@H]1CC=CCO[C@@H]2C[C@H](NC[C@@H](O)[C@H](Cc3ccccc3)NC1=O)c1cc(C)cc(C)c12 [Example 100, (S)-2-methyl-hexanoic acid ((1S,4R,5S,8S,14R)-5-benzyl-4-hydroxy-16,18-dimethyl-7-oxo-13-oxa-2,6-diaza-tricyclo[12.6.1.0^15,20]henicosa-10,15(20),16,18-tetraen-8-yl)-methyl-amide] | > 8.00
8 | CCCCCS(=O)(=O)N(C)[C@H]1CC=CCO[C@@H]2Cc3ccc(OC)cc3[C@H]2NC[C@@H](O)[C@H](Cc2ccccc2)NC1=O (racemic) [Example 26, pentane-1-sulfonic acid ((1R,7S,10S,11R,14R)-10-benzyl-11-hydroxy-17-methoxy-8-oxo-2-oxa-9,13-diaza-tricyclo[12.7.0.0^15,20]henicosa-4,15(20),16,18-tetraen-7-yl)-methyl-amide and pentane-1-sulfonic acid ((1S,7S,10S,11R,14S)-10-benzyl-11-hydroxy-17-methoxy-8-oxo-2-oxa-9,13-diaza-tricyclo[12.7.0.0^15,20]henicosa-4,15(20),16,18-tetraen-7-yl)-methyl-amide] | < 6.30
9 | CCCCCS(=O)(=O)N(C)[C@H]1CCCCO[C@H]2Cc3ccc(OC)cc3[C@H]2NC[C@@H](O)[C@H](Cc2ccccc2)NC1=O [Example 29, pentane-1-sulfonic acid ((1S,7S,10S,11R,14R)-10-benzyl-11-hydroxy-17-methoxy-8-oxo-2-oxa-9,13-diaza-tricyclo[12.7.0.0^15,20]henicosa-15(20),16,18-trien-7-yl)-methyl-amide] | 6.30 to 8.00
10 | CCCC(CCC)C(=O)N(C)[C@H]1CC=CCOCCC(c2cccc(OC)c2)NC[C@@H](O)[C@H](Cc2ccccc2)NC1=O (stereo partly drawn) [Example 19, N-((7R,8S,11S)-8-benzyl-7-hydroxy-4-(3-methoxyphenyl)-10-oxo-1-oxa-5,9-diazacyclopentadec-13-en-11-yl)-N-methyl-2-propylpentanamide] | < 6.30
11 | COc1ccc2c(c1)[C@@H]1CC2N(C)CCCCC[C@H](N(C)S(=O)(=O)CCC(F)(F)F)C(=O)N[C@@H](Cc2ccccc2)[C@H](O)CN1 [Example 56, 3,3,3-trifluoro-propane-1-sulfonic acid ((1S,4R,5S,8S)-5-benzyl-4-hydroxy-19-methoxy-14-methyl-7-oxo-2,6,14-triaza-tricyclo[13.6.1.0^16,21]docosa-16(21),17,19-trien-8-yl)-methyl-amide] | 6.30 to 8.00
12 | CCCCCS(=O)(=O)N(C)[C@H]1CC=CCO[C@@H]2C[C@H](NC[C@@H](O)[C@H](Cc3cc(Cl)cc(Cl)c3)NC1=O)c1cc(OC)ccc12 [Example 43] | > 8.00
13 | COc1ccc2c(c1)[C@@H]1C[C@H]2COCC=CC[C@H](N(C)S(=O)(=O)CCC(F)(F)F)C(=O)N[C@@H](Cc2ccccc2)[C@H](O)CN1 (single isomer, unassigned; isomer a) [Example 35] | > 8.00
14 | CCCC[C@H](C)C(=O)N(C)[C@H]1CC=CCO[C@H]2CC[C@H](C2)NC[C@@H](O)[C@H](Cc2cc(F)cc(F)c2)NC1=O (racemic) [Example 25, (S)-2-methyl-hexanoic acid [(1R,4R,5S,8S,14S)-5-(3,5-difluoro-benzyl)-4-hydroxy-7-oxo-13-oxa-2,6-diaza-bicyclo[12.2.1]heptadec-10-en-8-yl]-methyl-amide and (S)-2-methyl-hexanoic acid [(1S,4R,5S,8S,14R)-5-(3,5-difluoro-benzyl)-4-hydroxy-7-oxo-13-oxa-2,6-diaza-bicyclo[12.2.1]heptadec-10-en-8-yl]-methyl-amide] | 6.30 to 8.00
15 | CN([C@H]1CCC=CCO[C@@H]2C[C@H](NC[C@@H](O)[C@H](Cc3ccccc3)NC1=O)c1cc(Br)ccc12)S(=O)(=O)CCC(F)(F)F [Example 61, 3,3,3-trifluoro-propane-1-sulfonic acid ((1S,4R,5S,8S,15R)-5-benzyl-19-bromo-4-hydroxy-7-oxo-14-oxa-2,6-diaza-tricyclo[13.6.1.0^16,21]docosa-11,16(21),17,19-tetraen-8-yl)-methyl-amide] | > 8.00
16 | CCOc1ccsc1C(=O)N(C)[C@H]1CC=CCO[C@@H]2C[C@H](NC[C@@H](O)[C@H](Cc3ccccc3)NC1=O)c1cc(OC)ccc12 [Example 20, 3-ethoxy-thiophene-2-carboxylic acid ((1S,4R,5S,8S,14R)-5-benzyl-4-hydroxy-18-methoxy-7-oxo-13-oxa-2,6-diaza-tricyclo[12.6.1.0^15,20]henicosa-10,15(20),16,18-tetraen-8-yl)-methyl-amide] | 6.30 to 8.00
17 | COc1ccc2c(c1)[C@@H]1C[C@H]2NCCCC[C@H](N(C)S(=O)(=O)CCC(F)(F)F)C(=O)N[C@@H](Cc2ccccc2)[C@H](O)CN1 (single isomer, unassigned) [Example 52] | 6.30 to 8.00
18 | O=C1CCCC=CCO[C@@H]2C[C@H](NC[C@@H](O)[C@H](Cc3cc(F)cc(F)c3)N1)c1cc(-c3cc(C(F)(F)F)cc(C(F)(F)F)c3)ccc12 [Example 91, (1S,4R,5S,15R)-19-(3,5-bis-trifluoromethyl-phenyl)-5-(3,5-difluoro-benzyl)-4-hydroxy-14-oxa-2,6-diaza-tricyclo[13.6.1.0^16,21]docosa-11,16(21),17,19-tetraen-7-one] | < 6.30
